How the values were obtained:
[1] = Displacement of [3H]-NTI from delta opioid receptor in guinea pig forebrain homogenates; type: tissue-based, Cavia porcellus, Brain
Cavia porcellus = species: Cavia porcellus; experiment: Selectivity ratio of Ki for delta opioid receptor in guinea pig forebrain homogenates to Ki for mu opioid receptor in guinea pig forebrain homogenates; type: tissue-based
[2] = target: Kappa-type opioid receptor (Cavia porcellus, UniProt P41144); experiment: Displacement of [3H]-U69593 from kappa opioid receptor in guinea pig cerebellum homogenates; type: tissue-based
Chain of Kappa-type opioid receptor (P41144 whole entry): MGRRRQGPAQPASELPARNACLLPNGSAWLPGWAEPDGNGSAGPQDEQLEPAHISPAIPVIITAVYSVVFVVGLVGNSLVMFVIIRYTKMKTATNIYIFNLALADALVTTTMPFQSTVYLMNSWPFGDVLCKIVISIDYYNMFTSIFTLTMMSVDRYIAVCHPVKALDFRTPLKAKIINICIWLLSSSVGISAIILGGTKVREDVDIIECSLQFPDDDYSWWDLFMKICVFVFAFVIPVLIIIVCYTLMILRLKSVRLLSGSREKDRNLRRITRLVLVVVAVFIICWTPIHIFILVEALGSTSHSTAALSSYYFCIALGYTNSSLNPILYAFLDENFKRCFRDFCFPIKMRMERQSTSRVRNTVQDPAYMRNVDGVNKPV

Mu-type opioid receptor = Mu-type opioid receptor (Cavia porcellus, UniProt P97266); experiment: Displacement of [3H]-DAMGO from mu opioid receptor in guinea pig forebrain homogenates; type: tissue-based, Brain
Chain of Mu-type opioid receptor (P97266 whole entry): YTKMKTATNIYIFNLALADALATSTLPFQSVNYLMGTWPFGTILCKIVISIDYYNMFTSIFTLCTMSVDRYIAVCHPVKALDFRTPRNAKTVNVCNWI

Mus musculus [3] = experiment: Antinociceptive activity in sc dosed mouse by acetic acid writhing test; type: functional
Mus musculus [4] = experiment: Ratio of morphine ED50 to compound ED50 for antinociceptive activity in sc dosed mouse by acetic acid writhing test; type: functional

SMILES	Ki [1]	Ratio Ki (Cavia porcellus)	Ki [2]	Ki (Mu-type opioid receptor)	Activity (Mus musculus [3])	ED50 (Mus musculus [3])	Ratio ED50 (Mus musculus [4])
Oc1ccc2c3c1O[C@H]1[C@]4(CC[C@@]5(O)[C@@H](C2)N(CC2CC2)CC[C@]315)O[C@@H]1N2[C@H]4O[C@]3(CC[C@@]4(O)[C@H]5Cc6ccc(O)c7c6[C@@]4(CCN5CC4CC4)[C@H]3O7)[C@@H]2O[C@]12CC[C@@]1(O)[C@H]3Cc4ccc(O)c5c4[C@@]1(CCN3CC1CC1)[C@H]2O5	122 nM	5.5	22.1 nM	22.2 nM	–	–	–
O=C1CC[C@@]2(O)[C@H]3Cc4ccc(O)c5c4[C@@]2(CCN3CC2CC2)[C@H]1O5 [NALTREXONE]	20.7 nM	–	–	–	–	–	–
CN1CC[C@]23c4c5ccc(O)c4O[C@H]2[C@]2(CC[C@@]3(O)[C@H]1C5)O[C@@H]1N3[C@H]2O[C@]2(CC[C@@]4(O)[C@H]5Cc6ccc(O)c7c6[C@@]4(CCN5C)[C@H]2O7)[C@@H]3O[C@]12CC[C@@]1(O)[C@H]3Cc4ccc(O)c5c4[C@@]1(CCN3C)[C@H]2O5	38.6 nM	36.8	16.1 nM	1.05 nM	Dose-dependent effect	0.037 mg/kg	16
Oc1ccc2c3c1O[C@H]1[C@]4(CC[C@H]5[C@@H](C2)N(CC2CC2)CC[C@@]351)O[C@@H]1N2[C@H]4O[C@]3(CC[C@H]4[C@H]5Cc6ccc(O)c7c6[C@@]4(CCN5CC4CC4)[C@H]3O7)[C@@H]2O[C@]12CC[C@H]1[C@H]3Cc4ccc(O)c5c4[C@@]1(CCN3CC1CC1)[C@H]2O5	53.7 nM	2.4	43.2 nM	22.3 nM	–	–	–
CN1CC[C@]23c4c5ccc(O)c4O[C@H]2[C@]2(CC[C@@]3(O)[C@H]1C5)O[C@@H]1N3[C@H]2O[C@]2(CC[C@@]4(O)[C@H]5Cc6ccc(O)c7c6[C@@]4(CCN5CC4CC4)[C@H]2O7)[C@@H]3O[C@]12CC[C@@]1(O)[C@H]3Cc4ccc(O)c5c4[C@@]1(CCN3C)[C@H]2O5	23.5 nM	12.7	10.9 nM	1.85 nM	–	–	–
CN1CC[C@]23c4c5ccc(O)c4O[C@H]2[C@]2(CC[C@@]3(O)[C@H]1C5)O[C@@H]1N3[C@H]2O[C@]2(CC[C@@]4(O)[C@H]5Cc6ccc(O)c7c6[C@@]4(CCN5CC4CC4)[C@H]2O7)[C@@H]3O[C@]12CC[C@@]1(O)[C@H]3Cc4ccc(O)c5c4[C@@]1(CCN3CC1CC1)[C@H]2O5	24.6 nM	6.2	10.1 nM	3.98 nM	–	–	–
